Assay results as given in patent US9167821B2 (priority 2009, dated 2015).
Where a name gives a salt, the structure may show the parent alone.

Experiment: physchem
Source text: The determination is effected in the acidic range at pH 2.3 using 0.1% aqueous phosphoric acid and acetonitrile as eluents; linear gradient from 10% acetonitrile to 95% acetonitrile. • ^[b] The LC-MS determination in the acidic range is effected at pH 2.7 using 0.1% aqueous formic acid and acetonitrile (contains 0.1% formic acid) as eluents; linear gradient from 10% acetonitrile to 95% acetonitrile. • ^[c] The LC-MS determination in the neutral range is effected at pH 7.8 using 0.001 molar aqueous ammonium hydrogencarbonate solution and acetonitrile as eluents; linear gradient from 10% acetonitrile to 95% acetonitrile.
The calibration is effected with unbranched alkan-2-ones (having 3 to 16 carbon atoms) with known log P values (determination of the log P values using the retention times by linear interpolation between two successive alkanones).

SMILES | chromatographic logP (pH 2.7, log P (HCOOH)) | chromatographic logP (pH 2.7, logp [b]) | further results
CC(C)(C)OC(=O)N1CCC(c2nc(-c3cc(-c4ccccc4C=O)on3)cs2)CC1 [X-b-1, tert-butyl 4-{4-[5-(2-formylphenyl)-1,2-oxazol-3-yl]-1,3-thiazol-2-yl}piperidine-1-carboxylate] | 4.1 |  | 
O=C(Oc1ccccc1C1CC(c2csc(C3CCN(C(=O)Cn4nc(C(F)F)cc4C(F)F)CC3)n2)=NO1)C1CCCCC1 (stereo not drawn) [I-32, 2-{3-[2-(1-{[3,5-bis(difluoromethyl)-1H-pyrazol-1-yl]acetyl}piperidin-4-yl)-1,3-thiazol-4-yl]-4,5-dihydro-1,2-oxazol-5-yl}phenyl cyclohexanecarboxylate] |  |  | chromatographic logP (pH 2.3): 4.27; chromatographic logP (pH 7.8, logp [c]): 4.19
O=Cc1ccccc1-c1cc(-c2csc(C3CCN(C(=O)Cn4nc(C(F)F)cc4C(F)F)CC3)n2)no1 [I-31, 2-{3-[2-(1-{[3,5-Bis(difluoromethyl)-1H-pyrazol-1-yl]acetyl}piperidin-4-yl)-1,3-thiazol-4-yl]-1,2-oxazol-5-yl}benzaldehyde] |  | 3.25 | 
COC(=O)c1ccccc1C1CC(c2csc(C3CCN(C(=O)OC(C)(C)C)CC3)n2)=NO1 (stereo not drawn) [X-a-8, tert-butyl 4-(4-{5-[2-(methoxycarbonyl)phenyl]-4,5-dihydro-1,2-oxazol-3-yl}-1,3-thiazol-2-yl)piperidine-1-carboxylate] | 4.14 |  | 
FC1(c2nc(C3=NOC(c4ccccc4)C3)cs2)CCNCC1 (stereo not drawn) [XII-1, 4-fluoro-4-[4-(5-phenyl-4,5-dihydro-1,2-oxazol-3-yl)-1,3-thiazol-2-yl]piperidinium chloride] | 1.17 |  | 
CC(C)(C)OC(=O)N1CCC(c2nc(C3=NOC(c4ccccc4OCC4CCCCC4)C3)cs2)CC1 (stereo not drawn) [X-a-7, tert-butyl 4-(4-{5-[2-(cyclohexylmethoxy)phenyl]-4,5-dihydro-1,2-oxazol-3-yl}-1,3-thiazol-2-yl)piperidine-1-carboxylate] |  |  | chromatographic logP (pH 2.7, log P (pH2.7)): 6.3
C#Cc1ccccc1C1CC(c2csc(C3CCN(C(=O)Cn4nc(C(F)F)cc4C(F)F)CC3)n2)=NO1 (stereo not drawn) [I-38, 2-[3,5-Bis(difluoromethyl)-1H-pyrazol-1-yl]-1-(4-{4-[5-(2-ethynylphenyl)-4,5-dihydro-1,2-oxazol-3-yl]-1,3-thiazol-2-yl}piperidin-1-yl)ethanone] |  | 3.36 | 
O=C(O)c1ccccc1C1CC(c2csc(C3CCN(C(=O)Cn4nc(C(F)F)cc4C(F)F)CC3)n2)=NO1 (stereo not drawn) [2-{3-[2-(1-{[3,5-Bis(difluoromethyl)-1H-pyrazol-1-yl]acetyl}piperidin-4-yl)-1,3-thiazol-4-yl]-4,5-dihydro-1,2-oxazol-5-yl}benzoic acid] | 2.63 |  | 
O=Cc1ccccc1C1CC(c2csc(C3CCNCC3)n2)=NO1 (stereo not drawn) [XII-3, 2-{3-[2-(Piperidin-4-yl)-1,3-thiazol-4-yl]-4,5-dihydro-1,2-oxazol-5-yl}benzaldehyde hydrochloride] | 0.76 |  | 
CC(=O)c1ccccc1C1CC(c2csc(C3CCNCC3)n2)=NO1 (stereo not drawn) [XII-2, 1-(2-{3-[2-(Piperidin-4-yl)-1,3-thiazol-4-yl]-4,5-dihydro-1,2-oxazol-5-yl}phenyl)ethanone hydrochloride] | 0.96 |  | 
CCSCc1ccccc1C1CC(c2csc(C3CCN(C(=O)Cn4nc(C(F)F)cc4C(F)F)CC3)n2)=NO1 (stereo not drawn) [I-12, 2-[3,5-Bis(difluoromethyl)-1H-pyrazol-1-yl]-1-{4-[4-(5-{2-[(ethylsulphanyl)methyl]phenyl}-4,5-dihydro-1,2-oxazol-3-yl)-1,3-thiazol-2-yl]piperidin-1-yl}ethanone] |  | 3.9 | 
COCCOCc1ccccc1C1CC(c2csc(C3CCN(C(=O)Cn4nc(C(F)F)cc4C(F)F)CC3)n2)=NO1 (stereo not drawn) [I-11, 2-[3,5-Bis(difluoromethyl)-1H-pyrazol-1-yl]-1-{4-[4-(5-{2-[(2-methoxyethoxy)methyl]phenyl}-4,5-dihydro-1,2-oxazol-3-yl)-1,3-thiazol-2-yl]piperidin-1-yl}ethanone] |  | 3.21 | 
C#CCOc1cccc(Cl)c1C1CC(c2csc(C3CCN(C(=O)Cn4nc(C(F)F)cc4C(F)F)CC3)n2)=NO1 (stereo not drawn) [I-49, 2-[3,5-bis(difluoromethyl)-1H-pyrazol-1-yl]-1-[4-(4-{5-[2-chloro-6-(prop-2-yn-1-yloxy)phenyl]-4,5-dihydro-1,2-oxazol-3-yl}-1,3-thiazol-2-yl)piperidin-1-yl]ethanone] |  | 3.5 | chromatographic logP (pH 7.8, logp [c]): 3.34
O=Cc1cccc(F)c1C1CC(c2csc(C3CCN(C(=O)Cn4nc(C(F)F)cc4C(F)F)CC3)n2)=NO1 (stereo not drawn) [I-17, 2-{3-[2-(1-{[3,5-Bis(difluoromethyl)-1H-pyrazol-1-yl]acetyl}piperidin-4-yl)-1,3-thiazol-4-yl]-4,5-dihydro-1,2-oxazol-5-yl}-3-fluorobenzaldehyde] |  | 2.92 | chromatographic logP (pH 7.8, logp [c]): 2.82
COCCOc1cccc(Cl)c1C1CC(c2csc(C3CCN(C(=O)Cn4nc(C(F)F)cc4C(F)F)CC3)n2)=NO1 (stereo not drawn) [I-50, 2-[3,5-bis(difluoromethyl)-1H-pyrazol-1-yl]-1-[4-(4-{5-[2-chloro-6-(2-methoxyethoxy)phenyl]-4,5-dihydro-1,2-oxazol-3-yl}-1,3-thiazol-2-yl)piperidin-1-yl]ethanone] |  | 3.36 | 
Oc1ccccc1C1CC(c2csc(C3CCNCC3)n2)=NO1 (stereo not drawn) [XII-5, 4-{4-[5-(2-Hydroxyphenyl)-4,5-dihydro-1,2-oxazol-3-yl]-1,3-thiazol-2-yl}piperidinium chloride] |  |  | chromatographic logP (pH 2.7, log P (pH2.7)): 0.69
COC(=O)c1ccccc1C1CC(c2csc(C3CCN(C(=O)Cn4nc(C(F)F)cc4C(F)F)CC3)n2)=NO1 (stereo not drawn) [I-43, Methyl 2-{3-[2-(1-{[3,5-bis(difluoromethyl)-1H-pyrazol-1-yl]acetyl}piperidin-4-yl)-1,3-thiazol-4-yl]-4,5-dihydro-1,2-oxazol-5-yl}benzoate] |  | 3.32 | 
O=C(Cn1nc(C(F)F)cc1C(F)F)N1CCC(c2nc(C3=NOC(c4ccccc4CCl)C3)cs2)CC1 (stereo not drawn) [I-44, 2-[3,5-Bis(difluoromethyl)-1H-pyrazol-1-yl]-1-[4-(4-{5-[2-(chloromethyl)phenyl]-4,5-dihydro-1,2-oxazol-3-yl}-1,3-thiazol-2-yl)piperidin-1-yl]ethanone] |  | 3.36 | 
O=C(OCC1CC1)c1ccccc1C1CC(c2csc(C3CCN(C(=O)Cn4nc(C(F)F)cc4C(F)F)CC3)n2)=NO1 (stereo not drawn) [I-13, Cyclopropylmethyl 2-{3-[2-(1-{[3,5-bis(difluoromethyl)-1H-pyrazol-1-yl]acetyl}piperidin-4-yl)-1,3-thiazol-4-yl]-4,5-dihydro-1,2-oxazol-5-yl}benzoate] |  | 3.99 | chromatographic logP (pH 7.8, logp [c]): 3.92
O=[N+]([O-])c1ccccc1C1CC(c2csc(C3CCNCC3)n2)=NO1 (stereo not drawn) [XII-6, 4-{4-[5-(2-Nitrophenyl)-4,5-dihydro-1,2-oxazol-3-yl]-1,3-thiazol-2-yl}piperidinium chloride] |  |  | chromatographic logP (pH 2.7, log P (pH2.7)): 1.09
CC(C)(C)OC(=O)N1CCC(F)(c2nc(C=O)cs2)CC1 [VI-1, tert-Butyl 4-fluoro-4-(4-formyl-1,3-thiazol-2-yl)piperidine-1-carboxylate] | 2.8 |  | 
CS(=O)(=O)Nc1ccccc1C1CC(c2csc(C3CCNCC3)n2)=NO1 (stereo not drawn) [XII-4, 4-[4-(5-{2-[(Methylsulphonyl)amino]phenyl}-4,5-dihydro-1,2-oxazol-3-yl)-1,3-thiazol-2-yl]piperidinium chloride] | 0.72 |  | 
CC(C)(C)OC(=O)N1CCC(c2nc(C3=NOC(c4ccccc4O)C3)cs2)CC1 (stereo not drawn) [X-a-5, tert-Butyl 4-{4-[5-(2-hydroxyphenyl)-4,5-dihydro-1,2-oxazol-3-yl]-1,3-thiazol-2-yl}piperidine-1-carboxylate] |  |  | chromatographic logP (pH 2.7, log P (pH2.7)): 3.22
CC(C)(C)OC(=O)N1CCC(c2nc(C3=NOC(c4ccccc4[N+](=O)[O-])C3)cs2)CC1 (stereo not drawn) [X-a-6, tert-Butyl 4-{4-[5-(2-nitrophenyl)-4,5-dihydro-1,2-oxazol-3-yl]-1,3-thiazol-2-yl}piperidine-1-carboxylate] |  |  | chromatographic logP (pH 2.7, log P (pH2.7)): 4.01
O=C(Cn1nc(C(F)F)cc1C(F)F)N1CCC(c2nc(C3=NOC(c4ccccc4OCC4CCCCC4)C3)cs2)CC1 (stereo not drawn) [I-24, 2-[3,5-Bis(difluoromethyl)-1H-pyrazol-1-yl]-1-[4-(4-{5-[2-(cyclohexylmethoxy)phenyl]-4,5-dihydro-1,2-oxazol-3-yl}-1,3-thiazol-2-yl)piperidin-1-yl]ethanone] |  |  | chromatographic logP (pH 2.3): 4.9; chromatographic logP (pH 7.8): 4.9
O=C(NC1CC1)c1ccccc1C1CC(c2csc(C3CCN(C(=O)Cn4nc(C(F)F)cc4C(F)F)CC3)n2)=NO1 (stereo not drawn) [I-27, 2-{3-[2-(1-{[3,5-Bis(difluoromethyl)-1H-pyrazol-1-yl]acetyl}piperidin-4-yl)-1,3-thiazol-4-yl]-4,5-dihydro-1,2-oxazol-5-yl}-N-cyclopropylbenzamide] |  | 2.64 | 
O=C(Cn1nc(C(F)F)cc1C(F)F)N1CCC(c2nc(C3=NOC(c4c(O)cccc4Cl)C3)cs2)CC1 (stereo not drawn) [I-54, 2-[3,5-Bis(difluoromethyl)-1H-pyrazol-1-yl]-1-(4-{4-[5-(2-chloro-6-hydroxyphenyl)-4,5-dihydro-1,2-oxazol-3-yl]-1,3-thiazol-2-yl}piperidin-1-yl)ethanone] | 2.94 | 2.94 | 
CS(=O)(=O)Nc1ccccc1C1CC(c2csc(C3CCN(C(=O)Cn4nc(C(F)F)cc4C(F)F)CC3)n2)=NO1 (stereo not drawn) [I-37, N-(2-{3-[2-(1-{[3,5-Bis(difluoromethyl)-1H-pyrazol-1-yl]acetyl}piperidin-4-yl)-1,3-thiazol-4-yl]-4,5-dihydro-1,2-oxazol-5-yl}phenyl)methanesulphonamide] |  | 2.51 | 
CC(C)(C)OC(=O)N1CCC(c2nc(C3=NOC(c4ccccc4C=O)C3)cs2)CC1 (stereo not drawn) [X-a-3, tert-Butyl 4-{4-[5-(2-formylphenyl)-4,5-dihydro-1,2-oxazol-3-yl]-1,3-thiazol-2-yl}piperidine-1-carboxylate] | 3.76 |  | 
CC(C)(C)OC(=O)N1CCC(c2nc(C3=NOC(c4ccccc4C(=O)O)C3)cs2)CC1 (stereo not drawn) [X-a-9, 2-(3-{2-[1-(tert-butoxycarbonyl)piperidin-4-yl]-1,3-thiazol-4-yl}-4,5-dihydro-1,2-oxazol-5-yl)benzoic acid] | 3.18 |  | 
